Experimental data: the NIST ThermoML archive (doi:10.1021/je020107x)
± gives the expanded uncertainty stated by the source.

test: refractive index (Na D-line) (dimensionless); conditions: 298.15 K; 101.33 kPa; Liquid; Standard Abbe refractometry

SMILES | refractive index
Clc1ccc(Cl)c(Cl)c1 [1,2,4-trichlorobenzene] | 1.522 ± 0.0005
Clc1ccccc1Cl [1,2-dichlorobenzene] | 1.5491 ± 0.0005
Clc1cccc(Cl)c1 [1,3-dichlorobenzene] | 1.5432 ± 0.0005
Clc1ccccc1 [chlorobenzene] | 1.5218 ± 0.0005
CCCCCCCCCCCC [dodecane] | 1.4275 ± 0.0005
CCCCCCCCCCCCCCCC [hexadecane] | 1.4325 ± 0.0005
CCCCCC [hexane] | 1.3728 ± 0.0005
